Assay results as given in US5324502A, “Radiopharmaceuticals for imaging the heart” (priority 1992, dated 1994).
Read-outs that look alike come from different tables or passages of the source.

Tests used:
[1] = Octanol/water partition coefficient of radiolabeled gallium complexes; type: physicochemical
Description: Octanol/water partition coefficients were measured by vortex mixing 1 mL of 1-octanol and 1 mL of isotonic Tris buffer (pH 7.0) with a 1-5 μL sample of the radiolabeled gallium complex. Following centrifugation at >1200 g for 5 minutes, the octanol and aqueous phases were sampled and counted in an automatic well counter.

[2] = rat
Description: The gallium-67 complexes are prepared by ligand exchange from gallium-67 chloride, employing the tris(acetylacetonato)gallium(III) complex as an intermediate. The Ga-67 acetylacetonate in ethanol is reacted with the chelating ligand or ligand precursor at elevated temperature to form rapidly the desired gallium radiopharmaceutical. […] The biodistribution of several radiopharmaceuticals was determined in rats following intravenous injection using techniques previously described (M. A. Green, Nuclear Medicine and Biology 14:59-61, 1987; E. John and M. A. Green, J. Medicinal Chemistry, 33:1764-1770, 1990).
Under ether anesthesia, 1 to 3 μCi (0.1-0.2 mL) of no-carrier-added Ga-67 compound was administered by bolus injection into the femoral vein of male Sprague-Dawley rats. The ether anesthetized rats were sacrificed by decapitation at given time intervals post-injection, organs of interest were removed, weighed, and the gallium-67 activity counted. The biodistribution was calculated as a percentage of the injected dose per gram of tissue and percentage of injected dose per organ for each sample.

Question: With `[67Ga+3].[O-]c1ccccc1C=NCCCNCCNCCCN=Cc1ccccc1[O-]` [Sal2 BAPEN, ^67 GaL^+ L = [bis(salicylaldimino)-N,N'-bis(3-aminopropyl)-ethylenediamine]] as the compound, how does the “log P” value ([1]; octanol/tris buffer, pH 7) read?
Answer: 0.56

Question: And the “% injected dose in heart, 1 min” value ([2]; in vivo, iv)?
Answer: 0.45 ± 0.01 % injected dose

Question: And the “% injected dose in heart, 2 h” value ([2]; in vivo, iv)?
Answer: 0.41 ± 0.03 % injected dose

Question: And the “% Injected Dose per Gram Tissue, Blood” value ([2]; in vivo, iv, 1 min)?
Answer: 0.30 ± 0.01

Question: And the “% Injected Dose per Gram Tissue, Brain” value ([2]; in vivo, iv, 1 min)?
Answer: 0.02 ± 0.01

Question: And the “% Injected Dose per Gram Tissue, Heart” value ([2]; in vivo, iv, 1 min)?
Answer: 0.65 ± 0.02

Question: What about the “% Injected Dose per Gram Tissue, Kidney (one)” value ([2]; in vivo, iv, 1 min) of the same compound?
Answer: 12.39 ± 0.55

Question: What about the “% Injected Dose per Gram Tissue, Liver” value ([2]; in vivo, iv, 1 min) of the same compound?
Answer: 3.27 ± 0.44

Question: What about the “% Injected Dose per Gram Tissue, Lungs” value ([2]; in vivo, iv, 1 min) of the same compound?
Answer: 0.85 ± 0.09

Question: And the “% Injected Dose per Gram Tissue, Spleen” value ([2]; in vivo, iv, 1 min)?
Answer: 0.27 ± 0.03

Question: What about the Heart/Blood ([2]; in vivo, iv, 1 min) of the same compound?
Answer: 2.15 ± 0.05

Question: What about the “% Injected Dose per Gram Tissue, Blood” value ([2]; in vivo, iv, 2 h) of the same compound?
Answer: 0.05 ± 0.01

Question: What about the “% Injected Dose per Gram Tissue, Brain” value ([2]; in vivo, iv, 2 h) of the same compound?
Answer: 0.01 ± 0.003

Question: And the “% Injected Dose per Gram Tissue, Heart” value ([2]; in vivo, iv, 2 h)?
Answer: 0.58 ± 0.05

Question: What about the “% Injected Dose per Gram Tissue, Kidney (one)” value ([2]; in vivo, iv, 2 h) of the same compound?
Answer: 1.85 ± 0.30

Question: What about the “% Injected Dose per Gram Tissue, Liver” value ([2]; in vivo, iv, 2 h) of the same compound?
Answer: 0.64 ± 0.10

Question: And the “% Injected Dose per Gram Tissue, Lungs” value ([2]; in vivo, iv, 2 h)?
Answer: 0.24 ± 0.03

Question: What about the “% Injected Dose per Gram Tissue, Spleen” value ([2]; in vivo, iv, 2 h) of the same compound?
Answer: 0.11 ± 0.01

Question: And the Heart/Blood ([2]; in vivo, iv, 2 h)?
Answer: 12.44 ± 0.42

Question: And the “% Injected Dose per Gram Tissue, Blood” value ([2]; in vivo, iv, […])?
Answer: 0.07 ± 0.01

Question: And the “% Injected Dose per Gram Tissue, Brain” value ([2]; in vivo, iv, […])?
Answer: 0.01 ± 0.001

Question: And the “% Injected Dose per Gram Tissue, Heart” value ([2]; in vivo, iv, […])?
Answer: 0.60 ± 0.03

Question: And the “% Injected Dose per Gram Tissue, Kidney (one)” value ([2]; in vivo, iv, […])?
Answer: 4.47 ± 0.62

Question: And the “% Injected Dose per Gram Tissue, Liver” value ([2]; in vivo, iv, […])?
Answer: 1.20 ± 0.16

Question: What about the “% Injected Dose per Gram Tissue, Lungs” value ([2]; in vivo, iv, […]) of the same compound?
Answer: 0.29 ± 0.02

Question: What about the “% Injected Dose per Gram Tissue, Spleen” value ([2]; in vivo, iv, […]) of the same compound?
Answer: 0.11 ± 0.01

Question: And the Heart/Blood ([2]; in vivo, iv, […])?
Answer: 8.34 ± 0.66

Question: Which “log P” value ([1]; 1-octanol / isotonic Tris buffer pH 7.0) does the source give for “^67 GaL^+ L = [(4,6-MeO2 Sal)2 DM-BAPEN, ^67 GaL^+ L = [bis(4,6-dimethoxysalicylaldimino)-N,N'-bis(2,2'-dimethyl-3-aminopropyl)-ethylenediamine]]” here?
Answer: 2.73

Question: And the “% Injected Dose per Gram Tissue, Blood” value ([2]; i.v., 1 min)?
Answer: 1.30 ± 0.45 % Injected Dose per Gram Tissu

Question: And the “% Injected Dose per Gram Tissue, Brain” value ([2]; i.v., 1 min)?
Answer: 0.06 ± 0.01 % Injected Dose per Gram Tissu

Question: And the “% Injected Dose per Gram Tissue, Heart” value ([2]; i.v., 1 min)?
Answer: 1.31 ± 0.17 % Injected Dose per Gram Tissu

Question: What about the “% Injected Dose per Gram Tissue, Kidney (one)” value ([2]; i.v., 1 min) of the same compound?
Answer: 10.62 ± 0.94 % Injected Dose per Gram Tissu

Question: What about the “% Injected Dose per Gram Tissue, Liver” value ([2]; i.v., 1 min) of the same compound?
Answer: 5.82 ± 0.93 % Injected Dose per Gram Tissu

Question: What about the “% Injected Dose per Gram Tissue, Lungs” value ([2]; i.v., 1 min) of the same compound?
Answer: 1.24 ± 0.20 % Injected Dose per Gram Tissu

Question: And the “% Injected Dose per Gram Tissue, Spleen” value ([2]; i.v., 1 min)?
Answer: 1.59 ± 0.57 % Injected Dose per Gram Tissu

Question: What about the “% Injected Dose per Organ, Blood” value ([2]; i.v., 1 min) of the same compound?
Answer: 18.76 ± 6.91 % Injected Dose per Organ

Question: What about the “% Injected Dose per Organ, Brain” value ([2]; i.v., 1 min) of the same compound?
Answer: 0.10 ± 0.02 % Injected Dose per Organ

Question: And the “% Injected Dose per Organ, Heart” value ([2]; i.v., 1 min)?
Answer: 1.03 ± 0.17 % Injected Dose per Organ

Question: And the “% Injected Dose per Organ, Kidney (one)” value ([2]; i.v., 1 min)?
Answer: 8.33 ± 0.80 % Injected Dose per Organ

Question: What about the “% Injected Dose per Organ, Liver” value ([2]; i.v., 1 min) of the same compound?
Answer: 50.62 ± 5.72 % Injected Dose per Organ

Question: And the “% Injected Dose per Organ, Lungs” value ([2]; i.v., 1 min)?
Answer: 1.63 ± 0.47 % Injected Dose per Organ

Question: What about the “% Injected Dose per Organ, Spleen” value ([2]; i.v., 1 min) of the same compound?
Answer: 1.07 ± 0.35 % Injected Dose per Organ

Question: What about the “% injected dose in heart, 1 min” value ([2]; i.v., 1 min, preliminary studies) of the same compound?
Answer: 1.03 ± 0.17 % injected dose

Question: And the “% Injected Dose per Gram Tissue, Blood” value ([2]; i.v., 15 min)?
Answer: 0.13 ± 0.01 % Injected Dose per Gram Tissu

Question: And the “% Injected Dose per Gram Tissue, Brain” value ([2]; i.v., 15 min)?
Answer: 0.03 ± 0.01 % Injected Dose per Gram Tissu

Question: And the “% Injected Dose per Gram Tissue, Heart” value ([2]; i.v., 15 min)?
Answer: 1.23 ± 0.07 % Injected Dose per Gram Tissu

Question: And the “% Injected Dose per Gram Tissue, Kidney (one)” value ([2]; i.v., 15 min)?
Answer: 10.49 ± 0.92 % Injected Dose per Gram Tissu

Question: What about the “% Injected Dose per Gram Tissue, Liver” value ([2]; i.v., 15 min) of the same compound?
Answer: 3.92 ± 0.20 % Injected Dose per Gram Tissu

Question: What about the “% Injected Dose per Gram Tissue, Lungs” value ([2]; i.v., 15 min) of the same compound?
Answer: 0.63 ± 0.03 % Injected Dose per Gram Tissu

Question: And the “% Injected Dose per Gram Tissue, Spleen” value ([2]; i.v., 15 min)?
Answer: 1.96 ± 0.32 % Injected Dose per Gram Tissu

Question: And the “% Injected Dose per Organ, Blood” value ([2]; i.v., 15 min)?
Answer: 1.97 ± 0.15 % Injected Dose per Organ

Question: And the “% Injected Dose per Organ, Brain” value ([2]; i.v., 15 min)?
Answer: 0.04 ± 0.01 % Injected Dose per Organ

Question: What about the “% Injected Dose per Organ, Heart” value ([2]; i.v., 15 min) of the same compound?
Answer: 0.93 ± 0.04 % Injected Dose per Organ

Question: And the “% Injected Dose per Organ, Kidney (one)” value ([2]; i.v., 15 min)?
Answer: 8.77 ± 0.60 % Injected Dose per Organ

Question: What about the “% Injected Dose per Organ, Liver” value ([2]; i.v., 15 min) of the same compound?
Answer: 36.83 ± 2.91 % Injected Dose per Organ

Question: What about the “% Injected Dose per Organ, Lungs” value ([2]; i.v., 15 min) of the same compound?
Answer: 0.75 ± 0.05 % Injected Dose per Organ

Question: And the “% Injected Dose per Organ, Spleen” value ([2]; i.v., 15 min)?
Answer: 1.25 ± 0.20 % Injected Dose per Organ

Question: And the “% Injected Dose per Gram Tissue, Blood” value ([2]; i.v., 120 min)?
Answer: 0.03 ± 0.01 % Injected Dose per Gram Tissu

Question: And the “% Injected Dose per Gram Tissue, Brain” value ([2]; i.v., 120 min)?
Answer: 0.02 ± 0.01 % Injected Dose per Gram Tissu

Question: What about the “% Injected Dose per Gram Tissue, Heart” value ([2]; i.v., 120 min) of the same compound?
Answer: 1.36 ± 0.09 % Injected Dose per Gram Tissu

Question: What about the “% Injected Dose per Gram Tissue, Kidney (one)” value ([2]; i.v., 120 min) of the same compound?
Answer: 6.86 ± 0.54 % Injected Dose per Gram Tissu

Question: What about the “% Injected Dose per Gram Tissue, Liver” value ([2]; i.v., 120 min) of the same compound?
Answer: 0.42 ± 0.02 % Injected Dose per Gram Tissu

Question: And the “% Injected Dose per Gram Tissue, Lungs” value ([2]; i.v., 120 min)?
Answer: 0.58 ± 0.06 % Injected Dose per Gram Tissu

Question: What about the “% Injected Dose per Gram Tissue, Spleen” value ([2]; i.v., 120 min) of the same compound?
Answer: 1.59 ± 0.16 % Injected Dose per Gram Tissu

Question: And the “% Injected Dose per Organ, Blood” value ([2]; i.v., 120 min)?
Answer: 0.45 ± 0.03 % Injected Dose per Organ

Question: What about the “% Injected Dose per Organ, Brain” value ([2]; i.v., 120 min) of the same compound?
Answer: 0.04 ± 0.01 % Injected Dose per Organ

Question: And the “% Injected Dose per Organ, Heart” value ([2]; i.v., 120 min)?
Answer: 0.01 ± 0.06 % Injected Dose per Organ

Question: And the “% Injected Dose per Organ, Kidney (one)” value ([2]; i.v., 120 min)?
Answer: 5.40 ± 0.24 % Injected Dose per Organ

Question: And the “% Injected Dose per Organ, Liver” value ([2]; i.v., 120 min)?
Answer: 3.91 ± 0.19 % Injected Dose per Organ

Question: And the “% Injected Dose per Organ, Lungs” value ([2]; i.v., 120 min)?
Answer: 0.64 ± 0.06 % Injected Dose per Organ

Question: What about the “% Injected Dose per Organ, Spleen” value ([2]; i.v., 120 min) of the same compound?
Answer: 0.97 ± 0.07 % Injected Dose per Organ

Question: What about the “% injected dose in heart, 2 h” value ([2]; i.v., 2 h, preliminary studies) of the same compound?
Answer: 1.01 ± 0.06 % injected dose

Question: And the Heart/Blood ([2]; ratio, i.v., 1 min)?
Answer: 1.11 ± 0.40

Question: And the Heart/Liver ([2]; ratio, i.v., 1 min)?
Answer: 0.23 ± 0.06

Question: What about the Heart/Lungs ([2]; ratio, i.v., 1 min) of the same compound?
Answer: 1.07 ± 0.12

Question: And the Heart/Blood ([2]; ratio, i.v., 15 min)?
Answer: 9.65 ± 0.53

Question: What about the Heart/Liver ([2]; ratio, i.v., 15 min) of the same compound?
Answer: 0.32 ± 0.02

Question: And the Heart/Lungs ([2]; ratio, i.v., 15 min)?
Answer: 1.96 ± 0.20

Question: And the Heart/Blood ([2]; ratio, i.v., 120 min)?
Answer: 44.46 ± 1.63

Question: What about the Heart/Liver ([2]; ratio, i.v., 120 min) of the same compound?
Answer: 3.24 ± 0.07

Question: And the Heart/Lungs ([2]; ratio, i.v., 120 min)?
Answer: 2.34 ± 0.14
